Measurements from patent EP0469010B1, “COSMETIC COMPOSITION” (priority 1989, dated 1990).
Where a name gives a salt, the structure may show the parent alone.

Columns and labels:
Type in all cases: in vivo, human
underlying discoid LE = test: Clinical pilot study of topical sodium sucrose sulfate in alopecia: underlying discoid LE; design: key: very good in cases of definite cosmetic benefit; good in cases of significant regrowth of new hair, but not to an extend that is cosmetically apparent at distance; no effect in cases of no or only marginal regrowth of hair; details: 2 female patients, treated 2 and 4 months; regrowth except for the very center of the lesion
Protocol: (§1) During a 11 month period (April 1989 to March 1990), a total of 50 patients participated in a pilot study, evaluating the effect of the sodium salt of sucrose sulfate administered topically for the treatment of alopecia.
(§2) The test preparation was a 3% solution of Na-sucrose sulfate in a vehicle of 50% water/25% ethanol/25% propylene glycol (w/w), dispensed in 35 ml bottles with a sponge for topical administration on the scalp. The test preparation was applied morning and evening on the scalp, preferably on areas of partial or total alopecia. In average the patients have been using one bottle per month.
(§3) All patients were recruited by one dermatologist, and the effect of treatment was evaluated clinically by the same investigator, at monthly clinic visits.
(§4) The clinical effect was classified as very good in cases of definite cosmetic benefit, as good in cases of significant regrowth of new hair, but not to an extend that is cosmetically apparent at distance, and as no effect in cases of no or only marginal regrowth of hair.
2 female patients with underlying discoid LE were successfully treated for 2 and 4 months, respectively, with a very good effect comprising regrowth of hair except for the very center of the lesion.

[1] = test system: hair loss secondary to anti-cancer treatment; test: Pilot study of sodium sucrose sulfate, prophylactic and therapeutic, in hair loss secondary to anti-cancer treatment
From the text: The test preparation containing sodium sucrose sulfate from Example 11 was used both prophylactically and therapeutically in a few patients undergoing radiation and/or cytostatic anti-cancer treatment. One person started the treatment with the test preparation immediately after the anti-cancer treatment was instituted, applying the test preparation twice daily on eyebrows and eyelashes on the right side, and the left side served as untreated control. The treatment lasted four weeks. […] Another four females - also on anti-cancer treatment - used the test preparation twice daily, topically on the scalp after the hair was lost.

Ludwig type alopecia = test: Clinical pilot study of topical sodium sucrose sulfate in alopecia: Ludwig type alopecia in females; details: 5 females aged 20-49 years, treated 6-8 months, 3% solution topically
Protocol: as §2, §3, §4
5 Females aged from 20-49 years with Ludwig type alopecia were treated with the test drug for 6-8 months.

[2] = test system: very bad hair condition and underlying psoriasis; test: Clinical pilot study of topical sodium sucrose sulfate in alopecia: bad hair condition with psoriasis; design: key: very good in cases of definite cosmetic benefit; good in cases of significant regrowth of new hair, but not to an extend that is cosmetically apparent at distance; no effect in cases of no or only marginal regrowth of hair; details: one person, treated for 9 months, 3% solution topically
Protocol: as §1, §2, §3, §4
One person with very bad hair condition and underlying psoriasis was treated for 9 months and a very good effect on the test drug was obtained.

[3] = test system: subtotal or total alopecia, with underlying atopic dermatitis; test: Clinical pilot study of topical sodium sucrose sulfate in alopecia: subtotal or total alopecia; details: 3% solution topically
Protocol: as §1, §2, §3, §4
2 Patients suffered from subtotal or total alopecia, with underlying atopic dermatitis.

Male androgenic alopecia [4] = test: Clinical pilot study of topical sodium sucrose sulfate in alopecia: male androgenic alopecia; design: key to clinical effect: very good in cases of definite cosmetic benefit; good in cases of significant regrowth of new hair, but not to an extend that is cosmetically apparent at distance; no effect in cases of no or only marginal regrowth of hair; details: for clinical effect: 4 patients; for Clinical effect Good (number of patients) / Clinical effect No effect (number of patients) / Clinical effect Very good (number of patients): 3% solution topically morning and evening, about 3 to 9 months
Protocol: During a 11 month period (April 1989 to March 1990), a total of 50 patients participated in a pilot study, evaluating the effect of the sodium salt of sucrose sulfate administered topically for the treatment of alopecia. The test preparation was a 3% solution of Na-sucrose sulfate in a vehicle of 50% water/25% ethanol/25% propylene glycol (w/w), dispensed in 35 ml bottles with a sponge for topical administration on the scalp. The test preparation was applied morning and evening on the scalp, preferably on areas of partial or total alopecia. In average the patients have been using one bottle per month. All patients were recruited by one dermatologist, and the effect of treatment was evaluated clinically by the same investigator, at monthly clinic visits. The clinical effect was classified as very good in cases of definite cosmetic benefit, as good in cases of significant regrowth of new hair, but not to an extend that is cosmetically apparent at distance, and as no effect in cases of no or only marginal regrowth of hair. Male androgenic alopecia was the clinical diagnosis in 35 patients, their age ranging from 17 years to 50 years. Period of treatment was about 3 months in 15 case, about 6 months in 10 cases, and about 9 months in 10 cases.

alopecia areata = test: Clinical pilot study of topical sodium sucrose sulfate in alopecia: alopecia areata; design: key: very good in cases of definite cosmetic benefit; good in cases of significant regrowth of new hair, but not to an extend that is cosmetically apparent at distance; no effect in cases of no or only marginal regrowth of hair; details: 5 female patients aged 39 to 46 years, treated 2 to 9 months, 3% solution topically
Protocol: as §1, §2, §3, §4
5 Female patients with alopecia areata aged from 39 years to 46 years were treated for periods from 2 to 9 months, the treatment showing a very good effect.

[5] = test system: common male-pattern baldness; test: Treatment with sucralfate cream of common male-pattern baldness (single case, Example 14); details: 10% w/w sucralfate preparation, two daily topical applications, person, after 3-4 weeks
From the text: At the beginning, a "plume" appeared in the area, and after a few days the "plume" began turning into real hairs and 8 days after, there were dozens of real hairs which were indistinguishable from other hairs of the scalp, apart from being shorter and all coloured in the original colour of the hair, in contrast to the existing hair, which was partially greyed.

total alopecia = test: Clinical pilot study of topical micronized sucralfate in alopecia: total alopecia; details: one patient, total alopecia for 20 years, 5% micronized sucralfate twice daily for 6 weeks
From the text: (§5) A composition containing micronized sucralfate (<5 µm, Giulini Chemie, Germany) 5%, ethanol 25%, propylene glycol 25%, and distilled water 45%, was used in two daily applications on the scalp, the composition being dispensed in a bottle with sponge applicator. The average consumption of the test preparation in individual patients was about one bottle per month. […] The effects were lasting after stopping the treatment for about 4 months.

Male androgenic alopecia [6] = test: Clinical pilot study of topical micronized sucralfate in alopecia: male androgenic alopecia
From the text: as §5

[7] = age group 17-25 years, 20 patients
[8] = age group 25-40 years, 10 patients
[9] = age group >40 years, 5 patients

Q: For `O=S(=O)(O)OC[C@H]1O[C@@](COS(=O)(=O)O)(O[C@H]2O[C@H](COS(=O)(=O)O)[C@@H](OS(=O)(=O)O)[C@H](OS(=O)(=O)O)[C@H]2OS(=O)(=O)O)[C@@H](OS(=O)(=O)O)[C@@H]1OS(=O)(=O)O` [sodium sucrose sulfate, Sodium sucrose octasulfate], which clinical effect (underlying discoid LE) is on record?
A: very good

Q: What about the “regrowth of hair after loss” value ([1]; four females on anti-cancer treatment, twice daily topically on the scalp after the hair was lost) of the same compound?
A: much faster regrowth of hair than normally

Q: What about the “prevention of loss of eyebrows and eyelashes” value ([1]; one on anti-cancer treatment, twice daily on right side for four weeks, left side untreated control (lost)) of the same compound?
A: eyebrows and eyelashes remained

Q: And the “number of patients with good effect” value (Ludwig type alopecia)?
A: 3 patients

Q: And the “number of patients with only a marginal effect” value (Ludwig type alopecia)?
A: 2 patients

Q: What about the clinical effect [2] of the same compound?
A: very good

Q: What about the effect of treatment ([3]; person with 2-3 years of alopecia, treatment for 8 months) of the same compound?
A: only little effect

Q: What about the regrowth of hair ([3]; person, bald for 20 years, treatment for 10 months) of the same compound?
A: complete regrowth of hair

Q: What about the clinical effect (Male androgenic alopecia [4]; age group 17-25, previously failed on minoxidil, 3% solution topically) of the same compound?
A: no effect

Q: And the clinical effect (Male androgenic alopecia [4]; age group 25-40, previously failed on minoxidil, 3% solution topically)?
A: good

Q: And the “Clinical effect Good (number of patients)” value (shortened to “Clinical effect Good”) (Male androgenic alopecia [4]; [7])?
A: 8

Q: What about the “Clinical effect No effect (number of patients)” value (“Clinical effect No effect” below) (Male androgenic alopecia [4]; [7]) of the same compound?
A: 4

Q: And the “Clinical effect Very good (number of patients)” value (Male androgenic alopecia [4]; [7])?
A: 8

Q: And the “Clinical effect Good” value (Male androgenic alopecia [4]; [8])?
A: 2

Q: What about the “Clinical effect No effect” value (Male androgenic alopecia [4]; [8]) of the same compound?
A: 2

Q: And the “Clinical effect Very good (number of patients)” value (Male androgenic alopecia [4]; [8])?
A: 4

Q: What about the “Clinical effect Good” value (Male androgenic alopecia [4]; [9]) of the same compound?
A: 2

Q: What about the “Clinical effect No effect” value (Male androgenic alopecia [4]; [9]) of the same compound?
A: 2

Q: And the “time of treatment until hair-growing effect apparent” value (Male androgenic alopecia [4]; patients responding to the treatment, whole pilot study, typical value)?
A: ~1 month

Q: And the “effect in comparison to topically applied minoxidil (Regain®)” value (Male androgenic alopecia [4]; whole pilot study, 3% solution topically)?
A: markedly better effect

Q: And the clinical effect (alopecia areata)?
A: very good

Q: Which appearance of hair [5] does the source give for “sucrose octakis(hydrogen sulfate) aluminium complex [sucralfate]” here?
A: appearance of hair in the otherwise bald lateral-frontal areas

Q: And the regrowth of hair (total alopecia)?
A: dense regrowth of fine short terminal hairs all over the scalp

Q: And the regrowth of hair (Male androgenic alopecia [6]; one person, Hamilton grade 3, 5% micronized sucralfate twice daily for two months)?
A: dense regrowth of small terminal hairs

Q: And the “duration of effects after stopping the treatment” value (Male androgenic alopecia [6]; one person, Hamilton grade 3, after two months of treatment)?
A: about 4 months

Q: What about the regrowth of hair (Male androgenic alopecia [6]; six male patients aged 30 to 48 years, Hamilton grade 3 and 4, 5% micronized sucralfate twice daily for 3 to 6 months, all six cases) of the same compound?
A: definite regrowth of terminal hairs

Q: And the “time of treatment until effect seen” value (Male androgenic alopecia [6]; six male patients, Hamilton grade 3 and 4, typical value)?
A: 6-8 weeks
